Consider 18 molecules from ChEMBL document CHEMBL4049402, “Synthesis and cytotoxic activity of novel tetrahydrobenzodifuran-imidazolium salt derivatives” (Bioorg Med Chem Lett, 2017).

The structures appear in SMILES notation. Some results are limits rather than exact numbers.

What all share (assay type): functional, cell-based
Experiment [1] concerns A549. Put plainly: Cytotoxicity against human A549 cells after 48 hrs by MTT assay. In general terms: Formazan colour is commonly taken as a measure of viable cells.
Experiment [2] relates to SMMC-7721. Put plainly: Cytotoxicity against human SMMC7721 cells after 48 hrs by MTT assay.
Experiment [3] deals with HL-60. The experiment is described as follows: Cytotoxicity against human HL60 cells after 48 hrs by MTT assay.
For experiment [4], the system named is SW480. The experiment is described as follows: Cytotoxicity against human SW480 cells after 48 hrs by MTT assay.
Experiment [5] concerns MCF7. The experiment is described as follows: Cytotoxicity against human MCF7 cells after 48 hrs by MTT assay.

For orientation: IC50 means the point on the concentration scale where inhibition reaches its midpoint. A high value points to weaker potency. Consider `Cc1cc2c(cc1C)[n+](CC(=O)c1ccc(Br)cc1)cn2Cc1c2c(cc3c1OCC3)OCC2`, for which the IC50 in experiment [1] (a549) worked out at 15.3 µM; in experiment [2] (smmc-7721), 13 µM; in experiment [3] (hl-60), 2.38 µM; in experiment [4] (sw480), 15.2 µM; in experiment [5] (mcf7), 18 µM.

On to `O=[N+]([O-])c1ccc(C[n+]2ccn(Cc3c4c(cc5c3OCC5)OCC4)c2)cc1`, for which the IC50 is greater than 20 µM in experiment [1] (Homo sapiens, A549, 48 h); greater than 20 µM in experiment [2] (Homo sapiens, SMMC-7721, 48 h); greater than 20 µM in experiment [3] (Homo sapiens, HL-60, 48 h); greater than 20 µM in experiment [4] (Homo sapiens, SW480, 48 h); greater than 20 µM in experiment [5] (Homo sapiens, MCF7, 48 h).

For `Cc1nc2ccccc2n1Cc1c2c(cc3c1OCC3)OCC2`, the IC50 was greater than 20 µM in experiment [1] (Homo sapiens, A549, 48 h); greater than 20 µM in experiment [2] (Homo sapiens, SMMC-7721, 48 h); greater than 20 µM in experiment [3] (Homo sapiens, HL-60, 48 h); greater than 20 µM in experiment [4] (Homo sapiens, SW480, 48 h); greater than 20 µM in experiment [5] (Homo sapiens, MCF7, 48 h).

On to `Brc1ccc(C[n+]2cn(Cc3c4c(cc5c3OCC5)OCC4)c3ccccc32)cc1`, for which the IC50 in experiment [1] (Homo sapiens, A549, 48 h) is greater than 20 µM; in experiment [2] (Homo sapiens, SMMC-7721, 48 h), 17.8 µM; in experiment [3] (Homo sapiens, HL-60, 48 h), 4.12 µM; in experiment [4] (Homo sapiens, SW480, 48 h) it was 10.1 µM; in experiment [5] (Homo sapiens, MCF7, 48 h) it was 5.4 µM.

As to `Brc1ccc(C[n+]2ccn(Cc3c4c(cc5c3OCC5)OCC4)c2)cc1`, the IC50 in experiment [1] (Homo sapiens, A549, 48 h) is greater than 20 µM; in experiment [2] (Homo sapiens, SMMC-7721, 48 h), greater than 20 µM; in experiment [3] (Homo sapiens, HL-60, 48 h) it was greater than 20 µM; in experiment [4] (Homo sapiens, SW480, 48 h), greater than 20 µM; in experiment [5] (Homo sapiens, MCF7, 48 h), greater than 20 µM.

As for `COc1ccc(C(=O)C[n+]2cn(Cc3c4c(cc5c3OCC5)OCC4)c3ccccc32)cc1`, the IC50 in experiment [1] (Homo sapiens, A549, 48 h) is greater than 20 µM; in experiment [2] (Homo sapiens, SMMC-7721, 48 h), greater than 20 µM; in experiment [3] (Homo sapiens, HL-60, 48 h) it was 5.99 µM; in experiment [4] (Homo sapiens, SW480, 48 h) it was 14 µM; in experiment [5] (Homo sapiens, MCF7, 48 h), 6.6 µM.

In the case of `Cc1n(Cc2c3c(cc4c2OCC4)OCC3)c2ccccc2[n+]1CC(=O)c1ccccc1`, the IC50 is greater than 20 µM in experiment [1] (Homo sapiens, A549, 48 h); greater than 20 µM in experiment [2] (Homo sapiens, SMMC-7721, 48 h); greater than 20 µM in experiment [3] (Homo sapiens, HL-60, 48 h); greater than 20 µM in experiment [4] (Homo sapiens, SW480, 48 h); greater than 20 µM in experiment [5] (Homo sapiens, MCF7, 48 h).

For `Cc1n(Cc2c3c(cc4c2OCC4)OCC3)c2ccccc2[n+]1Cc1ccc([N+](=O)[O-])cc1`, the IC50 in experiment [1] (Homo sapiens, A549, 48 h) is greater than 20 µM; in experiment [2] (Homo sapiens, SMMC-7721, 48 h), greater than 20 µM; in experiment [3] (Homo sapiens, HL-60, 48 h), greater than 20 µM; in experiment [4] (Homo sapiens, SW480, 48 h), greater than 20 µM; in experiment [5] (Homo sapiens, MCF7, 48 h) it was greater than 20 µM.

As to `Cc1cc2c(cc1C)[n+](Cc1ccccc1Br)cn2Cc1c2c(cc3c1OCC3)OCC2`, the IC50 was 8.64 µM in experiment [1] (Homo sapiens, A549, 48 h); 5.96 µM in experiment [2] (Homo sapiens, SMMC-7721, 48 h); 3.18 µM in experiment [3] (Homo sapiens, HL-60, 48 h); 7.87 µM in experiment [4] (Homo sapiens, SW480, 48 h); 7.29 µM in experiment [5] (Homo sapiens, MCF7, 48 h).

On to `Cc1n(Cc2c3c(cc4c2OCC4)OCC3)c2ccccc2[n+]1Cc1ccc(Br)cc1`, for which the IC50 in experiment [1] (Homo sapiens, A549, 48 h) is greater than 20 µM; in experiment [2] (Homo sapiens, SMMC-7721, 48 h), 7.42 µM; in experiment [3] (Homo sapiens, HL-60, 48 h), 3.63 µM; in experiment [4] (Homo sapiens, SW480, 48 h) it was 7.22 µM; in experiment [5] (Homo sapiens, MCF7, 48 h), 4.86 µM.

With `O=C(C[n+]1cn(Cc2c3c(cc4c2OCC4)OCC3)c2ccccc21)c1ccccc1`, the IC50 in experiment [1] (Homo sapiens, A549, 48 h) was greater than 20 µM; in experiment [2] (Homo sapiens, SMMC-7721, 48 h) it was greater than 20 µM; in experiment [3] (Homo sapiens, HL-60, 48 h) it was greater than 20 µM; in experiment [4] (Homo sapiens, SW480, 48 h), greater than 20 µM; in experiment [5] (Homo sapiens, MCF7, 48 h), greater than 20 µM.

With `Cc1cc2c(cc1C)[n+](CC(=O)c1ccc3ccccc3c1)cn2Cc1c2c(cc3c1OCC3)OCC2`, the IC50 stood at 7.77 µM in experiment [1] (Homo sapiens, A549, 48 h); 5.64 µM in experiment [2] (Homo sapiens, SMMC-7721, 48 h); 1.95 µM in experiment [3] (Homo sapiens, HL-60, 48 h); 14 µM in experiment [4] (Homo sapiens, SW480, 48 h); 8.67 µM in experiment [5] (Homo sapiens, MCF7, 48 h).

For `Cc1cc2ncn(Cc3c4c(cc5c3OCC5)OCC4)c2cc1C`, the IC50 was greater than 20 µM in experiment [1] (Homo sapiens, A549, 48 h); greater than 20 µM in experiment [2] (Homo sapiens, SMMC-7721, 48 h); greater than 20 µM in experiment [3] (Homo sapiens, HL-60, 48 h); greater than 20 µM in experiment [4] (Homo sapiens, SW480, 48 h); greater than 20 µM in experiment [5] (Homo sapiens, MCF7, 48 h).

Consider `Cc1ccc(C[n+]2cn(Cc3c4c(cc5c3OCC5)OCC4)c3cc(C)c(C)cc32)cc1`, for which the IC50 in experiment [1] (Homo sapiens, A549, 48 h) amounted to 5.82 µM; in experiment [2] (Homo sapiens, SMMC-7721, 48 h) it was 4.43 µM; in experiment [3] (hl-60), 1.58 µM; in experiment [4] (Homo sapiens, SW480, 48 h) it was 6.15 µM; in experiment [5] (Homo sapiens, MCF7, 48 h), 7.39 µM.

On to `Cc1n(Cc2c3c(cc4c2OCC4)OCC3)c2ccccc2[n+]1CC(=O)c1ccc(Br)cc1`, for which the IC50 in experiment [1] (Homo sapiens, A549, 48 h) was greater than 20 µM; in experiment [2] (Homo sapiens, SMMC-7721, 48 h), 11.8 µM; in experiment [3] (Homo sapiens, HL-60, 48 h) it was 4.7 µM; in experiment [4] (Homo sapiens, SW480, 48 h) it was 8.29 µM; in experiment [5] (Homo sapiens, MCF7, 48 h) it was 6.43 µM.

Regarding `Cc1cc2c(cc1C)[n+](Cc1ccc(Br)cc1)cn2Cc1c2c(cc3c1OCC3)OCC2`, the IC50 was 6.9 µM in experiment [1] (Homo sapiens, A549, 48 h); 4.72 µM in experiment [2] (Homo sapiens, SMMC-7721, 48 h); 0.49 µM in experiment [3] (Homo sapiens, HL-60, 48 h); 10.1 µM in experiment [4] (Homo sapiens, SW480, 48 h); 6.85 µM in experiment [5] (Homo sapiens, MCF7, 48 h).

`Brc1ccccc1C[n+]1cn(Cc2c3c(cc4c2OCC4)OCC3)c2ccccc21`: the IC50 was greater than 20 µM in experiment [1] (Homo sapiens, A549, 48 h); greater than 20 µM in experiment [2] (Homo sapiens, SMMC-7721, 48 h); 4.9 µM in experiment [3] (Homo sapiens, HL-60, 48 h); 8.95 µM in experiment [4] (Homo sapiens, SW480, 48 h); 8.3 µM in experiment [5] (Homo sapiens, MCF7, 48 h).

Turning to `Cc1cc2c(cc1C)[n+](Cc1ccc([N+](=O)[O-])cc1)cn2Cc1c2c(cc3c1OCC3)OCC2`, the IC50 in experiment [1] (Homo sapiens, A549, 48 h) was greater than 20 µM; in experiment [2] (Homo sapiens, SMMC-7721, 48 h) it was greater than 20 µM; in experiment [3] (Homo sapiens, HL-60, 48 h), greater than 20 µM; in experiment [4] (Homo sapiens, SW480, 48 h), greater than 20 µM; in experiment [5] (Homo sapiens, MCF7, 48 h), greater than 20 µM.
